# Results published in patent publication US12404289B2 (Gilead Sciences, Inc., priority 2020, dated 2025).
# Like-named read-outs stand apart in the source and are kept apart here.
# Tested on: Respiratory syncytial virus (RSV) strain A2
# Assay: RSV antiviral assay (HEp-2, 96 well)
# Assay type: cell-based
# Conditions: Table 3
# [1] = human respiratory syncytial virus, HEp-2, 96 h, read-out: EC50 RSV HEP2 96, HEp-2 cells, RSV A2, MOI=4, 4 days, 96 well
# [2] = read-out: EC50 RSV HEP2 96, HEp-2 cells, RSV A2, MOI=4, 4 days, 96 well
SMILES,EC50 [1] [µM],EC50 [2] [µM]
CCOC(=O)[C@H](C)NP(=O)(OC[C@H]1O[C@@](C#N)(c2ccc3c(N)ncnn23)[C@H](O)[C@@H]1O)Oc1ccc(C(C)C)cc1 (some centres unmarked) [Example 63a],0.104,–
"CCOCCOCCOC(=O)[C@H](C)NP(=O)(OC[C@H]1O[C@@](C#N)(c2ccc3c(N)ncnn23)[C@H](OC(=O)C(C)C)[C@@H]1OC(=O)C(C)C)Oc1ccc(C(C)(C)C)cc1 (stereo partly drawn) [Example 115, (2R,3R,4R,5R)-2-(4-aminopyrrolo[2,1-f][1,2,4]triazin-7-yl)-5-((((4-(tert-butyl)phenoxy)(((S)-1-(2-(2-ethoxyethoxy)ethoxy)-1-oxopropan-2-yl)amino)phosphoryl)oxy)methyl)-2-cyanotetrahydrofuran-3,4-diyl bis(2-methylpropanoate)]",0.0626,–
"CCC(CC)COC(=O)[C@H](C)NP(=O)(OC[C@H]1O[C@@](C#N)(c2ccc3c(N)ncnn23)[C@H](O)[C@@H]1O)Oc1ccc(C[C@H](NC(=O)OCc2ccccc2)C(=O)OCCC(C)C)cc1 (stereo partly drawn) [Example 71, isopentyl (2S)-3-[4-[[(2R,3S,4R,5R)-5-(4-aminopyrrolo[2,1-f][1,2,4]triazin-7-yl)-5-cyano-3,4-dihydroxy-tetrahydrofuran-2-yl]methoxy-[[(1S)-2-(2-ethylbutoxy)-1-methyl-2-oxo-ethyl]amino]phosphoryl]oxyphenyl]-2-(benzyloxycarbonylamino)propanoate]",1.79,–
"CCOC(=O)O[C@H]1[C@@H](OC(=O)OCC)[C@](C#N)(c2ccc3c(N)ncnn23)O[C@@H]1COP(=O)(N[C@@H](C)C(=O)OCC)Oc1ccc(C(C)(C)C)cc1 (stereo partly drawn) [Example 124, ethyl ((((2R,3R,4R,5R)-5-(4-aminopyrrolo[2,1-f][1,2,4]triazin-7-yl)-5-cyano-3,4-bis((ethoxycarbonyl)oxy)tetrahydrofuran-2-yl)methoxy)(4-(tert-butyl)phenoxy)phosphoryl)-L-alaninate]",0.0671,–
"C[C@H](NP(=O)(OC[C@H]1O[C@@](C#N)(c2ccc3c(N)ncnn23)[C@H](O)[C@@H]1O)Oc1ccc(C2CC2)cc1)C(=O)OC1CCC1 (stereo partly drawn) [Example 51b, cyclobutyl (2S)-2-[[[(2R,3S,4R,5R)-5-(4-aminopyrrolo[2,1-f][1,2,4]triazin-7-yl)-5-cyano-3,4-dihydroxy-tetrahydrofuran-2-yl]methoxy-(cyclopropylphenoxy)phosphoryl]amino]propanoate]",–,0.0868
"COC(C)(C)COC(=O)[C@H](C)N[P@](=O)(OC[C@H]1O[C@@](C#N)(c2ccc3c(N)ncnn23)[C@H](OC(=O)CC(C)C)[C@@H]1OC(=O)CC(C)C)Oc1ccccc1 [Example 168, (2R,3R,4R,5R)-2-(4-aminopyrrolo[2,1-f][1,2,4]triazin-7-yl)-2-cyano-5-((((S)—(((S)-1-(2-methoxy-2-methylpropoxy)-1-oxopropan-2-yl)amino)(phenoxy)phosphoryl)oxy)methyl)tetrahydrofuran-3,4-diyl bis(3-methylbutanoate)]",0.111,–
"C[C@H](NP(=O)(OC[C@H]1O[C@@](C#N)(c2ccc3c(N)ncnn23)[C@H](O)[C@@H]1O)Oc1ccc(C(C)(C)C)cc1)C(=O)O[C@H]1CC[C@H](C(F)(F)F)CC1 (single isomer, unassigned) [Example 84a]",0.185,–
"CC(C)CC(=O)O[C@H]1[C@@H](OC(=O)CC(C)C)[C@](C#N)(c2ccc3c(N)ncnn23)O[C@@H]1COP(=O)(N[C@@H](C)C(=O)OC1CCC1)Oc1ccccc1 (stereo partly drawn) [Example 109, (2R,3R,4R,5R)-2-(4-aminopyrrolo[2,1-f][1,2,4]triazin-7-yl)-2-cyano-5-((((((S)-1-cyclobutoxy-1-oxopropan-2-yl)amino)(phenoxy)phosphoryl)oxy)methyl)tetrahydrofuran-3,4-diyl bis(3-methylbutanoate)]",0.0435,–
"CCC(C)(C)COC(=O)[C@H](C)NP(=O)(OC[C@H]1O[C@@](C#N)(c2ccc3c(N)ncnn23)[C@H](OC(=O)C(C)C)[C@@H]1OC(=O)C(C)C)Oc1ccccc1 (stereo partly drawn) [Example 114, (2R,3R,4R,5R)-2-(4-aminopyrrolo[2,1-f][1,2,4]triazin-7-yl)-2-cyano-5-((((((S)-1-(2,2-dimethylbutoxy)-1-oxopropan-2-yl)amino)(phenoxy)phosphoryl)oxy)methyl)tetrahydrofuran-3,4-diyl bis(2-methylpropanoate)]",0.061,–
"CC(C)C(=O)O[C@H]1[C@@H](OC(=O)C(C)C)[C@](C#N)(c2ccc3c(N)ncnn23)O[C@@H]1COP(=O)(N[C@@H](C)C(=O)O[C@H]1CC[C@H](C(F)(F)F)CC1)Oc1ccc(C(C)(C)C)cc1 (single isomer, unassigned) [Example 85a]",0.0627,–
"CCOC(=O)[C@H](C)NP(=O)(OC[C@H]1O[C@@](C#N)(c2ccc3c(N)ncnn23)[C@H](OC(=O)C(C)C)[C@@H]1OC(=O)C(C)C)Oc1ccc(C(C)C)cc1 (stereo partly drawn) [Example 64, [(2R,3R,4R,5R)-5-(4-aminopyrrolo[2,1-f][1,2,4]triazin-7-yl)-5-cyano-2-[[[[(1S)-2-ethoxy-1-methyl-2-oxo-ethyl]amino]-(4-isopropylphenoxy)phosphoryl]-oxymethyl]-4-(2-methylpropanoyloxy)tetrahydrofuran-3-yl] 2-methylpropanoate]",0.0579,–
CC(C)C(=O)O[C@H]1[C@@H](OC(=O)C(C)C)[C@](C#N)(c2ccc3c(N)ncnn23)O[C@@H]1COP(=O)(N[C@@H](C)C(=O)OC1CCC1)Oc1ccc(C2CC2)cc1 (some centres unmarked) [Example 52b],–,0.0254
"COC(C)(C)CCOC(=O)[C@H](C)NP(=O)(OC[C@H]1O[C@@](C#N)(c2ccc3c(N)ncnn23)[C@H](O)[C@@H]1O)Oc1ccccc1 (stereo partly drawn) [Example 75, (3-methoxy-3-methyl-butyl) (2S)-2-[[[(2R,3S,4R,5R)-5-(4-aminopyrrolo[2,1-f][1,2,4]triazin-7-yl)-5-cyano-3,4-dihydroxy-tetrahydrofuran-2-yl]methoxy-phenoxy-phosphoryl]amino]propanoate]",0.289,–
"CC(C)C(=O)O[C@H]1[C@@H](OC(=O)C(C)C)[C@](C#N)(c2ccc3c(N)ncnn23)O[C@@H]1COP(=O)(N[C@@H](C)C(=O)O[C@H]1CC[C@H](C(F)(F)F)CC1)Oc1ccc(C(C)(C)C)cc1 (single isomer, unassigned) [Example 85b]",–,0.0805
"CC(C)C(=O)O[C@H]1[C@@H](OC(=O)C(C)C)[C@](C#N)(c2ccc3c(N)ncnn23)O[C@@H]1COP(=O)(N[C@@H](C)C(=O)OCCC(C)(C)C)Oc1ccccc1 (single isomer, unassigned) [Example 56b]",–,0.0747
"CCCCCCOC(=O)[C@H](Cc1ccccc1)NP(=O)(OC[C@H]1O[C@@](C#N)(c2ccc3c(N)ncnn23)[C@H](OC(=O)C(C)C)[C@@H]1OC(=O)C(C)C)Oc1ccc(C(C)(C)C)cc1 (stereo partly drawn) [Example 123, (2R,3R,4R,5R)-2-(4-aminopyrrolo[2,1-f][1,2,4]triazin-7-yl)-5-((((4-(tert-butyl)phenoxy)(((S)-1-(hexyloxy)-1-oxo-3-phenylpropan-2-yl)amino)phosphoryl)oxy)methyl)-2-cyanotetrahydrofuran-3,4-diyl bis(2-methylpropanoate)]",0.0637,–
CCC(CC)COC(=O)[C@H](C)NP(=O)(OC[C@H]1O[C@@](C#N)(c2ccc3c(N)ncnn23)[C@H](O)[C@@H]1O)Oc1cccc(C(C)(C)C)c1 (some centres unmarked) [Example 68a],0.0608,–
"CC(C)C(=O)O[C@H]1[C@@H](OC(=O)C(C)C)[C@](C#N)(c2ccc3c(N)ncnn23)O[C@@H]1COP(=O)(N[C@@H](C)C(=O)OC1CCCCCCC1)Oc1ccc(C(C)(C)C)cc1 (single isomer, unassigned) [Example 77a]",0.194,–
"CCCCCCOC(=O)[C@H](C)NP(=O)(OC[C@H]1O[C@@](C#N)(c2ccc3c(N)ncnn23)[C@H](OC(=O)C(C)C)[C@@H]1OC(=O)C(C)C)Oc1ccc(C(C)(C)C)cc1 (stereo partly drawn) [Example 125, (2R,3R,4R,5R)-2-(4-aminopyrrolo[2,1-f][1,2,4]triazin-7-yl)-5-((((4-(tert-butyl)phenoxy)(((S)-1-(hexyloxy)-1-oxopropan-2-yl)amino)phosphoryl)oxy)methyl)-2-cyanotetrahydrofuran-3,4-diyl bis(2-methylpropanoate)]",0.0211,–
"CCC(CC)COC(=O)[C@H](C)NP(=O)(OC[C@H]1O[C@@](C#N)(c2ccc3c(N)ncnn23)[C@H](OC(=O)C(C)C)[C@@H]1OC(=O)C(C)C)Oc1ccc(C[C@H](NC(=O)OCc2ccccc2)C(=O)OCCC(C)C)cc1 (stereo partly drawn) [Example 72, (2R,3R,4R,5R)-2-(4-aminopyrrolo[2,1-f][1,2,4]triazin-7-yl)-5-((((4-((S)-2-(((benzyloxy)carbonyl)amino)-3-(isopentyloxy)-3-oxopropyl)phenoxy)(((S)-1-(2-ethylbutoxy)-1-oxopropan-2-yl)amino)phosphoryl)oxy)methyl)-2-cyanotetrahydrofuran-3,4-diyl bis(2-methylpropanoate)]",0.556,–
"CCC(=O)O[C@H]1[C@@H](OC(=O)CC)[C@](C#N)(c2ccc3c(N)ncnn23)O[C@@H]1COP(=O)(N[C@@H](C)C(=O)OCC(CC)CC)Oc1ccc(C(C)(C)C)cc1 (stereo partly drawn) [Example 110, (2R,3R,4R,5R)-2-(4-aminopyrrolo[2,1-f][1,2,4]triazin-7-yl)-5-((((4-(tert-butyl)phenoxy)(((S)-1-(2-ethylbutoxy)-1-oxopropan-2-yl)amino)phosphoryl)oxy)methyl)-2-cyanotetrahydrofuran-3,4-diyl Dipropionate]",0.0576,–
"CCOCCOCCOC(=O)[C@H](C)NP(=O)(OC[C@H]1O[C@@](C#N)(c2ccc3c(N)ncnn23)[C@H](O)[C@@H]1O)Oc1ccc(C(C)(C)C)cc1 (stereo partly drawn) [Example 112, 2-(2-ethoxyethoxy)ethyl ((((2R,3S,4R,5R)-5-(4-aminopyrrolo[2,1-f][1,2,4]triazin-7-yl)-5-cyano-3,4-dihydroxytetrahydrofuran-2-yl)methoxy)(4-(tert-butyl)phenoxy)phosphoryl)-L-alaninate]",0.56,–
"CCC(=O)O[C@@H]1[C@H](OC(=O)C(N)C(C)C)[C@@H](COP(=O)(N[C@@H](C)C(=O)OCC(CC)CC)Oc2ccccc2)O[C@@]1(C#N)c1ccc2c(N)ncnn12 (stereo in doubt) [Example 88, [(2R,3R,4R,5R)-5-(4-aminopyrrolo[2,1-f][1,2,4]triazin-7-yl)-5-cyano-2-[[[[(1S)-2-(2-ethylbutoxy)-1-methyl-2-oxo-ethyl]amino]-phenoxy-phosphoryl]oxymethyl]-4-propanoyloxy-tetrahydrofuran-3-yl] (2R)-2-amino-3-methyl-butanoate]",0.0214,–
